Assay results published in patent US20240199618A1, “NOVEL N-ACYL-[3-SUBSTITUTED]-[8-SUBSTITUTED]-5,6-DIHYDRO-[1,2,4]TRIAZOLO[4,3-a]PYRAZINES AS SELECTIVE NK-3 RECEPTOR ANTAGONISTS, PHARMACEUTICAL COMPOSITION, METHODS FOR USE IN NK-3 RECEPTOR-MEDIATED DISORDERS” (Ogeda SA, priority 2013, published 2024).
Where two headings read alike, the source gives them in different places.

Assays:
human NK-3 receptor [1] = target: T1, human NK-3 receptor (Homo sapiens (Human), UniProt P29371); assay: 3H-SB222200 binding competition assay with human NK-3 receptor
How it was run: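 Membranes from CHO cells stably expressing the receptor were incubated with 5 nM 3H-SB222200 and varying compound concentrations in HEPES 25 mM/NaCl 0.1 M/CaCl2 1 mM/MgCl2 5 mM/BSA 0.5%/saponin 10 μg/ml, pH 7.4. Bound radioligand was quantified as membrane-associated radioactivity after filtration.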

human NK-3 receptor [2] = target: T1, human NK-3 receptor; assay: Aequorin functional assay with human NK-3 receptor (antagonist testing vs NKA); type: cell-based; details: CHO cells, NKA at EC80 (3 nM); read-out: Functional assay: Aequorin assay with human NK-3 receptor hNK-3-AEQ (antagonist IC50)
How it was run: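 CHO cells co-expressing human NK-3 receptor and apoaequorin were pre-incubated 3 min with compound, then challenged with NKA at EC80 (3 nM). Coelenterazine-dependent luminescence was integrated over 90 s, and antagonism was derived from concentration-dependent inhibition of the calcium response.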

human NK-1 receptor = human NK-1 receptor (Homo sapiens (Human), UniProt P25103); assay: Selectivity assay: [3H] substance P binding, human NK-1 receptor; details: 2 nM [3H] substance P, CHO membranes; read-out: hNK-1 (Ki)
How it was run: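 Competition binding on membranes from CHO cells expressing human NK-1 receptor, using 2 nM [3H] substance P in 50 mM Tris/5 mM MnCl2/150 mM NaCl/0.1% BSA, pH 7.4, with increasing compound concentrations. Incubated 60 min at 25 °C; bound radioactivity measured after filtration.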

[3] = tested on: circulating levels of luteinizing hormone (LH); assay: Castrated male rat model, circulating luteinizing hormone (LH); type: in vivo; details: single oral dose less than or equal to 30 mg/kg, p<0.05
Method: Castrated Male Rat Model to Assess the Effect of Compound of Invention on Circulating Levels of Luteinizing Hormone (LH)
The effect of compounds of the invention to inhibit luteinizing hormone (LH) secretion is determined by the following biological studies.
In humans and rodents, castration is well-precedented to permit heightened, persistent GnRH signaling and consequent elevation of circulating LH. Thus, a castrated rat model is used to provide a broad index for measurement of LH inhibition as a marker of test compound inhibition of the GnRH signaling pathway.
Castrated adult male Sprague-Dawley (SD) rats (150-175 g,) were purchased from Janvier (St Berthevin, France). All animals were housed 2 per cage in a temperature-controlled room (22±2° C.) and 50±5% relative humidity with a 12 hour/12 hour light/dark cycles (lights off at […]). The animals were allowed 3 weeks of postoperative recovery prior to study. Animals were handled on a daily basis. Standard diet and tap water were provided ad libitum. Animal cage litters were changed once a week. On the study day, animals were acclimated to the procedure room for a period of one hour prior to the initiation of the experiment.
Compounds of the invention were formulated in 0.5% methyl cellulose.
After basal sampling (TO) a single dose of compounds of the invention or vehicle was administrated orally to rats. Blood samples were then collected at several time points post dosing (45, 90, 150, 300 and 420 minutes). Blood samples were obtained via tail vein bleed, drawn into EDTA-containing tubes and centrifuged immediately. Plasma samples were collected and stored in a −80° C. freezer until assayed. Serum LH levels were determined using radioimmunoassay kit from RIAZEN—Rat L H, Zentech (Liege, Belgium). Baseline was defined as the initial basal blood sample.

human NK-2 receptor = human NK-2 receptor (Homo sapiens (Human), UniProt P21452); assay: Selectivity assay: [125I]-Neurokinin A binding, human NK-2 receptor; details: 0.1 nM [125I]-Neurokinin A, CHO membranes; read-out: hNK-2 (Ki)
Method: The affinity of compounds of the invention for the NK-2 receptor was evaluated in CHO recombinant cells which express the human NK-2 receptor. Membrane suspensions were prepared from these cells. […] Binding assays were performed in a 25 mM HEPES/1 mM CaCl2)/5 mM MgCl2/0.5% BSA/10 μg/ml saponin, at pH 7.4. […] The radioactivity retained on the filters was measured by using the TopCount-NXT reader (Packard).

plasma protein = assay: Determination of plasma protein binding (equilibrium dialysis, RED); type: in vitro ADME; details: 4 hours at 37° C.
[4] = Table 2, 5 nM 3H-SB222200, CHO membranes, read-out: Competitive binding assay with human NK-3 receptor hNK-3 (Ki)
[5] = Table 3 (selectivity table), read-out: hNK-3 (Ki)

T1 sequence (P29371 whole entry): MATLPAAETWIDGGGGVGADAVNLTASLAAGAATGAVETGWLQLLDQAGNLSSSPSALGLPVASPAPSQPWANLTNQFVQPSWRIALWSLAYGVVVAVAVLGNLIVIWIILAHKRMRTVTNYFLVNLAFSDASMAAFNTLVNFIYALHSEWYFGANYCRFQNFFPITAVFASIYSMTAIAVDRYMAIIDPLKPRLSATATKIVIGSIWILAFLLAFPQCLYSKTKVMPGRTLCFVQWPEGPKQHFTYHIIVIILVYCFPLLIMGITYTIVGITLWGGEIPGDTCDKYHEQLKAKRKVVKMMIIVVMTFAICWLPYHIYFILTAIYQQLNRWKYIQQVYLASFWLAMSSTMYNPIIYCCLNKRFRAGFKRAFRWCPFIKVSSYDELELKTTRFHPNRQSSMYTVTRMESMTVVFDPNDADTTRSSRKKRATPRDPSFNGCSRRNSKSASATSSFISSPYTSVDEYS
human NK-2 receptor, sequence (P21452 whole entry): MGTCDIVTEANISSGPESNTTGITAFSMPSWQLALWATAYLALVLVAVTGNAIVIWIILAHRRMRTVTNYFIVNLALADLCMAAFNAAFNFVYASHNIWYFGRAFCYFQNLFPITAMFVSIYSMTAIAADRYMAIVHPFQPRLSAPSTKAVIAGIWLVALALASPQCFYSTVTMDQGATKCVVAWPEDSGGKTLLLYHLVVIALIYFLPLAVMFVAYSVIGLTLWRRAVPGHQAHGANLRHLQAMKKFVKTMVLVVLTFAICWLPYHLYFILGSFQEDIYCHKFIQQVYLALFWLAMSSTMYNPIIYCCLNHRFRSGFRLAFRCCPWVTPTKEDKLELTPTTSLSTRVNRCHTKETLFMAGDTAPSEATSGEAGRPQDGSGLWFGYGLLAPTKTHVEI
human NK-1 receptor, sequence (P25103 whole entry): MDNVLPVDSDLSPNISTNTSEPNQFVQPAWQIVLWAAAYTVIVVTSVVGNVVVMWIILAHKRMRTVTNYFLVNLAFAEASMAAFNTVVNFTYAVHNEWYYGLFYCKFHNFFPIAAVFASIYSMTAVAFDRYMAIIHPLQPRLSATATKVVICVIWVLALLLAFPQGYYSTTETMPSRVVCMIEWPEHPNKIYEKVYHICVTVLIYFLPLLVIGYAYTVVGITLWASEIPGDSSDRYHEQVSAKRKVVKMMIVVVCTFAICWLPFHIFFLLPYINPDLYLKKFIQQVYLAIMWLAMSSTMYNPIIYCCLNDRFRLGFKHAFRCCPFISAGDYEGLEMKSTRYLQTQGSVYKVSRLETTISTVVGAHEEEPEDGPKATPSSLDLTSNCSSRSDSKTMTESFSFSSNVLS

Compound: Cc1nsc(-c2nnc3n2CCN(C(=O)c2ccc(Cl)c(Cl)c2)[C@@H]3C)n1 [Compound 1, (R)-(3,4-dichlorophenyl)(8-methyl-3-(3-methyl-1,2,4-thiadiazol-5-yl)-5,6-dihydro-[1,2,4]triazolo[4,3-a]pyrazin-7(8H)-yl)methanone]
- Ki (human NK-3 receptor [1]; [4]): 11 nM
- Ki (human NK-3 receptor [1]; [5]): 11 nM
- IC50 (human NK-3 receptor [2]): 16 nM
- Ki (human NK-1 receptor): 10300 nM
- circulating LH levels [3]: significantly suppressed
- Ki (human NK-2 receptor): 7500 nM
- Exposure (% rPPB), bound drug fraction to plasma protein (plasma protein): 67%

Compound: Cc1nsc(-c2nnc3n2CCN(C(=O)c2ccc(F)c(F)c2F)[C@@H]3C)n1 [Compound 8, (R)-(8-methyl-3-(3-methyl-1,2,4-thiadiazol-5-yl)-5,6-dihydro-[1,2,4]triazolo[4,3-a]pyrazin-7(8H)-yl)(2,3,4-trifluorophenyl)methanone]
- Ki (human NK-3 receptor [1]; [4]): 26 nM
- Ki (human NK-3 receptor [1]; [5]): 26 nM
- IC50 (human NK-3 receptor [2]): 33 nM
- Ki (human NK-1 receptor): > 30000 nM
- circulating LH levels [3]: significantly suppressed
- Ki (human NK-2 receptor): > 30000 nM
- Exposure (% rPPB), bound drug fraction to plasma protein (plasma protein): 29%

Compound: CCc1noc(-c2nnc3n2CCN(C(=O)c2ccc(F)cc2)[C@@H]3C)n1 [Compound 13, (R)-(3-(3-ethyl-1,2,4-oxadiazol-5-yl)-8-methyl-5,6-dihydro-[1,2,4]triazolo[4,3-a]pyrazin-7(8H)-yl)(4-fluorophenyl)methanone]
- Ki (human NK-3 receptor [1]; [4]): 40 nM
- Ki (human NK-3 receptor [1]; [5]): 40 nM
- IC50 (human NK-3 receptor [2]): 44 nM
- Ki (human NK-1 receptor): > 30000 nM
- circulating LH levels [3]: significantly suppressed
- Ki (human NK-2 receptor): > 30000 nM
- Exposure (% rPPB), bound drug fraction to plasma protein (plasma protein): 37%

Compound: CCc1nsc(-c2nnc3n2CCN(C(=O)c2ccc(F)cc2)[C@@H]3C)n1 [Compound 2, (R)-(3-(3-ethyl-1,2,4-thiadiazol-5-yl)-8-methyl-5,6-dihydro-[1,2,4]triazolo[4,3-a]pyrazin-7(8H)-yl)(4-fluorophenyl)methanone]
- Ki (human NK-3 receptor [1]; [4]): 15 nM
- Ki (human NK-3 receptor [1]; [5]): 15 nM
- IC50 (human NK-3 receptor [2]): 12 nM
- Ki (human NK-1 receptor): 23800 nM
- circulating LH levels [3]: significantly suppressed
- Ki (human NK-2 receptor): > 30000 nM
- Exposure (% rPPB), bound drug fraction to plasma protein (plasma protein): 47%
